# According to US9751874B2, “Hydroxy containing FXR (NR1H4) modulating compounds” (Gilead Sciences, Inc., priority 2014, dated 2017):
# Legend:
# [1] = biological target: T1, human FXR alpha ligand binding domain (Homo sapiens, UniProt Q96RI1); assay: FRET activity assay (ligand mediated cofactor peptide interaction, LANCE); format: biochemical; conditions: GST-FXR-LBD / biotinylated SRC-1 peptide (676-700), read-out: F EC50
# T1 construct: made in house; host or cells: E. coli BL21(DE3), vector pDEST15
# T1 sequence (Q96RI1 187-472 isoform Q96RI1-2): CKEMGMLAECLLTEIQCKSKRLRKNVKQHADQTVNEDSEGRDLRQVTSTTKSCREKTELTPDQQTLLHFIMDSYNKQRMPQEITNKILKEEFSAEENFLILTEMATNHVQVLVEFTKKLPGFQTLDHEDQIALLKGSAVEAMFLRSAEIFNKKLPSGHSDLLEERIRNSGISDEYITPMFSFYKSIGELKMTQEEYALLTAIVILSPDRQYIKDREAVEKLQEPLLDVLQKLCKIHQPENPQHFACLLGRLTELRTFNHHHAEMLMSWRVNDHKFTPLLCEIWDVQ
# Method in brief: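 GST-tagged FXR LBD (aa 187–472, E. coli-expressed) at 20–60 ng/well with 200–600 nM biotinylated SRC-1 peptide (676–700), streptavidin-APC and Eu anti-GST in Tris pH 7.5 buffer, 1% DMSO, equilibrated 1 h dark at room temperature. TR-FRET read as 665/615 nm ratio; agonists raise signal above basal.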
# [2] = biological target: T2, FXR ligand binding domain (Homo sapiens, UniProt Q96RI1); assay: Mammalian One Hybrid (M1H) assay, Gal4 promoter driven transactivation in HEK293 cells; format: cell-based; conditions: Gal4-FXR-LBD luciferase reporter, 16 h
# T2 construct: expressed in transfected cells; host or cells: HEK293 cells, transiently transfected with pCMV-BD-FXR-LBD, pFR-Luc and pRL-CMV
# T2 sequence (Q96RI1 187-472 isoform Q96RI1-2): T1 sequence (Q96RI1 187-472 isoform Q96RI1-2)
# Method in brief: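 HEK293 cells were transiently co-transfected with Gal4-DBD fused to the human FXR LBD (aa 187-472, NM_005123), a 5×GAL4-site firefly luciferase reporter and CMV-Renilla control. Compounds were added 2-4 h post-transfection (vehicle ≤0.1%) in charcoal/dextran-stripped FBS medium for 16 h. Firefly and Renilla luciferase were read sequentially, in triplicate.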
SMILES,EC50 [1] [nM],EC50 [2] [nM]
"O=C(O)c1cc(F)c2nc([C@]3(O)[C@@H]4CC[C@H]3C[C@H](OCc3c(-c5ccccc5OC(F)F)noc3C3CC3)C4)sc2c1 [Example 11-28, 2-((1R,3s,5S,8r)-3-((5-Cyclopropyl-3-(2-(difluoromethoxy)phenyl)isoxazol-4-yl)methoxy)-8-hydroxybicyclo[3.2.1]octan-8-yl)-4-fluorobenzo[d]thiazole-6-carboxylic acid]",9.7,17
"O=C(O)c1cc(F)c2nc([C@]3(O)[C@@H]4CC[C@H]3C[C@H](OCc3c(-c5c(Cl)cncc5Cl)noc3C3CC3)C4)sc2c1 [Example 11-29, 2-((1R,3s,5S,8r)-3-((5-cyclopropyl-3-(3,5-dichloropyridin-4-yl)isoxazol-4-yl)methoxy)-8-hydroxybicyclo[3.2.1]octan-8-yl)-4-fluorobenzo[d]thiazole-6-carboxylic acid]",4.3,5.8
"O=C(O)c1ccc2nc([C@]3(O)CC[C@@H](OCc4c(-c5c(Cl)cccc5Cl)noc4C4CC4)CC3)sc2c1 [Example 11-30, 2-((1s,4s)-4-((5-Cyclopropyl-3-(2,6-dichlorophenyl)isoxazol-4-yl)methoxy)-1-hydroxycyclohexyl)benzo[d]thiazole-6-carboxylic acid]",64,67
"O=C(O)c1cc(F)c2nc([C@]3(O)CC[C@@H](OCc4c(-c5c(Cl)cccc5Cl)noc4C4CC4)CC3)sc2c1 [Example 11-31, 2-((1s,4s)-4-((5-cyclopropyl-3-(2,6-dichlorophenyl)isoxazol-4-yl)methoxy)-1-hydroxycyclohexyl)-4-fluorobenzo[d]thiazole-6-carboxylic acid]",50,130
"O=C(O)c1cc(F)c2nc([C@]3(O)CC[C@@H](OCc4c(-c5c(Cl)cncc5Cl)noc4C4CC4)CC3)sc2c1 [Example 11-34, 2-((1s,4s)-4-((5-Cyclopropyl-3-(3,5-dichloropyridin-4-yl)isoxazol-4-yl)methoxy)-1-hydroxycyclohexyl)-4-fluorobenzo[d]thiazole-6-carboxylic acid]",55,380
"O=C(O)c1ccc2nc([C@@]3(O)[C@@H]4CC5C[C@H]3C[C@](OCc3c(-c6c(Cl)cccc6Cl)noc3C3CC3)(C5)C4)sc2c1 [Example 11-35, 2-((1R,2r,3S,5s,7s)-5-((5-Cyclopropyl-3-(2,6-dichlorophenyl)isoxazol-4-yl)methoxy)-2-hydroxyadamantan-2-yl)benzo[d]thiazole-6-carboxylic acid]",9.6,5.2
"O=C(O)c1ccc2nc([C@]3(O)[C@@H]4CC5C[C@H]3C[C@](OCc3c(-c6c(Cl)cccc6Cl)noc3C3CC3)(C5)C4)sc2c1 [Example 11-36, 2-((1R,2s,3S,5s,7s)-5-((5-Cyclopropyl-3-(2,6-dichlorophenyl)isoxazol-4-yl)methoxy)-2-hydroxyadamantan-2-yl)benzo[d]thiazole-6-carboxylic acid]",1100,930
"Cc1onc(-c2c(Cl)cccc2Cl)c1CO[C@@H]1C[C@H]2CC[C@@H](C1)[C@]2(O)c1nc2ccc(C(=O)O)cc2s1 [Example 11-37, 2-((1R,3s,5S,8r)-3-((3-(2,6-Dichlorophenyl)-5-methylisoxazol-4-yl)methoxy)-8-hydroxybicyclo[3.2.1]octan-8-yl)benzo[d]thiazole-6-carboxylic acid]",8.8,43
"Cc1onc(-c2c(Cl)cccc2Cl)c1CO[C@H]1C[C@H]2CC[C@@H](C1)[C@]2(O)c1nc2ccc(C(=O)O)cc2s1 [Example 11-38, 2-((1R,3r,5S,8r)-3-((3-(2,6-Dichlorophenyl)-5-methylisoxazol-4-yl)methoxy)-8-hydroxybicyclo[3.2.1]octan-8-yl)benzo[d]thiazole-6-carboxylic acid]",270,460
"Cn1cc(C(=O)O)c2ccc([C@]3(O)CC[C@@H](OCc4c(-c5c(Cl)cccc5Cl)noc4C4CC4)CC3)cc21 [Example 11-42, 6-((1s,4s)-4-((5-Cyclopropyl-3-(2,6-dichlorophenyl)isoxazol-4-yl)methoxy)-1-hydroxycyclohexyl)-1-methyl-1H-indole-3-carboxylic acid]",20,36
"O=C(O)c1cnc2cc([C@]3(O)CC[C@@H](OCc4c(-c5c(Cl)cccc5Cl)noc4C4CC4)CC3)ccc2c1 [Example 11-43, 7-((1s,4s)-4-((5-Cyclopropyl-3-(2,6-dichlorophenyl)isoxazol-4-yl)methoxy)-1-hydroxycyclohexyl)quinoline-3-carboxylic acid]",16,1800
"O=C(O)c1cccc2nc([C@]3(O)CC[C@@H](OCc4c(-c5c(Cl)cccc5Cl)noc4C4CC4)CC3)ccc12 [Example 11-44, 2-((1s,4s)-4-((5-Cyclopropyl-3-(2,6-dichlorophenyl)isoxazol-4-yl)methoxy)-1-hydroxycyclohexyl)quinoline-5-carboxylic acid]",49,120
"CC(C)n1nc(C(=O)O)c2ccc([C@]3(O)CC[C@@H](OCc4c(-c5c(Cl)cccc5Cl)noc4C4CC4)CC3)cc21 [Example 11-45, 6-((1s,4s)-4-((5-Cyclopropyl-3-(2,6-dichlorophenyl)isoxazol-4-yl)methoxy)-1-hydroxycyclohexyl)-1-isopropyl-1H-indazole-3-carboxylic acid]",7,140
"O=C(O)c1cc(F)c2nc(C3(O)C[C@H]4CC(OCc5c(-c6c(Cl)cccc6Cl)noc5C5CC5)C[C@H]4C3)sc2c1 (stereo partly drawn) [Example 11-46, 2-((3aR,6aS)-5-((5-Cyclopropyl-3-(2,6-dichlorophenyl)isoxazol-4-yl)methoxy)-2-hydroxyoctahydropentalen-2-yl)-4-fluorobenzo[d]thiazole-6-carboxylic acid]",44,180
"O=C(O)c1ccc(C2(O)C[C@H]3CC(OCc4c(-c5c(Cl)cccc5Cl)noc4C4CC4)C[C@H]3C2)c(F)c1 (stereo partly drawn) [Example 11-47, 4-((3aR,6aS)-5-((5-Cyclopropyl-3-(2,6-dichlorophenyl)isoxazol-4-yl)methoxy)-2-hydroxyoctahydropentalen-2-yl)-3-fluorobenzoic acid]",12,99
"O=C(O)c1cc(F)c2nc([C@]3(O)CC4CC3CC4OCc3c(-c4c(Cl)cccc4Cl)noc3C3CC3)sc2c1 (stereo partly drawn) [Example 11-49, 2-((1R,2S,4R)-5-((5-Cyclopropyl-3-(2,6-dichlorophenyl)isoxazol-4-yl)methoxy)-2-hydroxybicyclo[2.2.1]heptan-2-yl)-4-fluorobenzo[d]thiazole-6-carboxylic acid]",28,93
"Cc1cccc(C)c1OCc1noc(C2CC2)c1CO[C@@H]1C[C@H]2CC[C@@H](C1)[C@]2(O)c1nc2c(F)cc(C(=O)O)cc2s1 [Example 11-50, 2-((1R,3s,5S,8r)-3-((5-Cyclopropyl-3-((2,6-dimethylphenoxy)methyl)isoxazol-4-yl)methoxy)-8-hydroxybicyclo[3.2.1]octan-8-yl)-4-fluorobenzo[d]thiazole-6-carboxylic acid]",82,6.4
"CC(C)c1onc(-c2c(Cl)cccc2Cl)c1CO[C@@H]1C[C@H]2CC[C@@H](C1)[C@]2(O)c1nc2c(F)cc(C(=O)O)cc2s1 [Example 11-51, 2-((1R,3s,5S,8r)-3-((3-(2,6-Dichlorophenyl)-5-isopropylisoxazol-4-yl)methoxy)-8-hydroxybicyclo[3.2.1]octan-8-yl)-4-fluorobenzo[d]thiazole-6-carboxylic acid]",3.7,0.62
"CC(C)(F)c1onc(-c2c(Cl)cccc2Cl)c1CO[C@@H]1C[C@H]2CC[C@@H](C1)[C@]2(O)c1nc2c(F)cc(C(=O)O)cc2s1 [Example 11-52, 2-((1R,3s,5S,8r)-3-((3-(2,6-Dichlorophenyl)-5-(2-fluoropropan-2-yl)isoxazol-4-yl)methoxy)-8-hydroxybicyclo[3.2.1]octan-8-yl)-4-fluorobenzo[d]thiazole-6-carboxylic acid]",4.9,1.9
"CC(C)(Cc1cccc([C@]2(O)[C@@H]3CC[C@H]2C[C@H](OCc2c(-c4c(Cl)cccc4Cl)noc2C2CC2)C3)c1)C(=O)O [Example 11-53, 3-(3-((1R,3s,5S,8r)-3-((5-Cyclopropyl-3-(2,6-dichlorophenyl)isoxazol-4-yl)methoxy)-8-hydroxybicyclo[3.2.1]octan-8-yl)phenyl)-2,2-dimethylpropanoic acid]",235,391
"CC(C)(O)c1onc(-c2c(Cl)cccc2Cl)c1CO[C@@H]1C[C@H]2CC[C@@H](C1)[C@]2(O)c1nc2c(F)cc(C(=O)O)cc2s1 [Example 11-56, 2-((1R,3s,5S,8r)-3-((3-(2,6-Dichlorophenyl)-5-(2-hydroxypropan-2-yl)isoxazol-4-yl)methoxy)-8-hydroxybicyclo[3.2.1]octan-8-yl)-4-fluorobenzo[d]thiazole-6-carboxylic acid]",23,290
